Experimental data as given in US11142533B2, “Macrocycles for use in treating disease” (TURNING POINT THERAPEUTICS, INC., priority 2019, dated 2021).
Where a chain is given by its changes, count along the chain named. Read-outs that look alike come from different tables or passages of the source. One block for each molecule: values may come before it.

Columns and labels:
[1] = molecular target: T1, Ba/F3 cell-derived tumors with the EML4-ALK G1202R fusion (Homo sapiens, UniProt Q9UM73, G1202R); settings: after 7 days of treatment
T1 sequence (Q9UM73 with tags, fused parts or gaps G1202R): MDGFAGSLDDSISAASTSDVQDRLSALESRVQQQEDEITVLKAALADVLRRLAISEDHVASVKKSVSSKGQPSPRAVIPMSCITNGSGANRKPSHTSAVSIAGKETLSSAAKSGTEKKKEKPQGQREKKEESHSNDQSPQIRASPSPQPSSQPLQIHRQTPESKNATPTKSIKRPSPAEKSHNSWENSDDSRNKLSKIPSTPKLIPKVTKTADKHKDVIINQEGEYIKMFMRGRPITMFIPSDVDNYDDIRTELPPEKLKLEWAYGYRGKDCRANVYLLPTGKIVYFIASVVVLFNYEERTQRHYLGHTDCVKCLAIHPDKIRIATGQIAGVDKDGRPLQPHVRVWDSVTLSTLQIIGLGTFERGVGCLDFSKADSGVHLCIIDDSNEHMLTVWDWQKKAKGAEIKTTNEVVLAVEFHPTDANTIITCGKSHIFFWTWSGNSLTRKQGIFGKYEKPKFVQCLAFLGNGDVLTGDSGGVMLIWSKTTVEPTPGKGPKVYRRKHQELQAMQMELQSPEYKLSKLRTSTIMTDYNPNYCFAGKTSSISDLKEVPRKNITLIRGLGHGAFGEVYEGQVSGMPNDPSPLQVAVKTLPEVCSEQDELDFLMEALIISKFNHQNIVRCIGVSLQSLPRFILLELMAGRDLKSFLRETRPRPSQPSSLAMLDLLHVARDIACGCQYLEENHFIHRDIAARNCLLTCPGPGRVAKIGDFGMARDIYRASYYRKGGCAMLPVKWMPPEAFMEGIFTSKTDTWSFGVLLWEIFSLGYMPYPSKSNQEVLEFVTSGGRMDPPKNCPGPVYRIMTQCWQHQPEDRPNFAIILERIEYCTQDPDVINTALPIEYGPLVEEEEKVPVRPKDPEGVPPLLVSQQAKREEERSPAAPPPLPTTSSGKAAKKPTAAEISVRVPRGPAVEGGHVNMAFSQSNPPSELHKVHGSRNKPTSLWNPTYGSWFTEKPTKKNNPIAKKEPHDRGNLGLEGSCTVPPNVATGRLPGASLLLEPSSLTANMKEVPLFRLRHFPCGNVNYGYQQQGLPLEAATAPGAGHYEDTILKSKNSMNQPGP

ALK (delete G1202) = molecular target: T2, ALK (delete G1202) (Homo sapiens, UniProt Q9UM73, DEL1202-1202); assay: Biochemical kinase assay (Reaction Biology); settings: 10 μM ATP
T2 construct: purchased Reaction Biology Corporation (contract assay)

ALK (C1156Y) = molecular target: T3, ALK (C1156Y) (Homo sapiens, UniProt Q9UM73, C1156Y); assay: Biochemical kinase assay (Reaction Biology); settings: 10 μM ATP
T3 construct: purchased Reaction Biology Corporation (contract assay)

ALK (L1152P) = molecular target: T4, ALK (L1152P) (Homo sapiens, UniProt Q9UM73, L1152P); assay: Biochemical kinase assay (Reaction Biology); settings: 10 μM ATP
T4 construct: purchased Reaction Biology Corporation (contract assay)

ALK (V1180L) = molecular target: T5, ALK (V1180L) (Homo sapiens, UniProt Q9UM73, V1180L); assay: Biochemical kinase assay (Reaction Biology); settings: 10 μM ATP
T5 construct: purchased Reaction Biology Corporation (assay run there)

ALK (G1269S) = molecular target: T6, ALK (G1269S) (Homo sapiens, UniProt Q9UM73, G1269S); assay: Biochemical kinase assay (Reaction Biology); settings: 10 μM ATP
T6 construct: purchased Reaction Biology Corporation (contract assay)

ALK (T1151-L1152insT) = molecular target: T7, ALK (T1151-L1152insT) (Homo sapiens, UniProt Q9UM73, INS1151T); assay: Biochemical kinase assay (Reaction Biology); settings: 10 μM ATP
T7 construct: purchased Reaction Biology Corporation (contract assay)

[2] = molecular target: Ba/F3 cell-derived tumors with the EML4-ALK L1196M/G1202R fusion (Homo sapiens, UniProt Q9UM73, G1202R/L1196M)
[3] = molecular target: T8, Ba/F3 cell-derived tumors with the EML4-ALK L1198F/G1202R fusion (Homo sapiens, UniProt Q9UM73, G1202R/L1198F)
T8 sequence (Q9UM73 with tags, fused parts or gaps L1198F/G1202R): T1 sequence (Q9UM73 with tags, fused parts or gaps G1202R) with L637F

[4] = 2, 5, 10 mg/kg BID, after 7 days of treatment

Tumor growth inhibition (TGI) ([1]; 3 mg/kg BID oral): 51% | Tumor growth inhibition (TGI) ([1]; 10 mg/kg BID oral): 77% | IC50 (ALK (delete G1202)): 0.45 nM | IC50 (ALK (C1156Y)): 0.11 nM | IC50 (ALK (L1152P)): 1.96 nM | IC50 (ALK (V1180L)): 0.51 nM | IC50 (ALK (G1269S)): 6.14 nM | IC50 (ALK (T1151-L1152insT)): 0.86 nM
SMILES: O=C1NCC2(CC2)COc2ccc(F)cc2CN2c3nc4c1cnn4cc3OC[C@H]2C(F)F [Compound 2, (16′S)-16′-(Difluoromethyl)-12′-fluoro-4′H,5′H,6′H,8′H,14′H,16′H,17′H-spiro[cyclopropane-1,7′-[1,19](metheno)[1,4]oxazino[3,4-j]pyrazolo[4,3-g][1,5,9,11]benzoxatriazacyclotetradecin]-4′-one]
body weight ([1]; 3 and 10 mg/kg BID): no body weight loss

Tumor growth inhibition (TGI) ([1]; 2 mg/kg BID oral): 64% | Tumor growth inhibition (TGI) ([1]; 5 mg/kg BID oral): 120% | Tumor growth inhibition (TGI) ([1]; 10 mg/kg BID oral): 200% | Tumor growth inhibition (TGI) ([2]; 0.6 mg/kg BID, after 7 days of treatment): 19% | Tumor growth inhibition (TGI) ([2]; 2 mg/kg BID, after 7 days of treatment): 44% | Tumor growth inhibition (TGI) ([2]; 5 mg/kg BID, after 7 days of treatment): 83% | Tumor growth inhibition (TGI) ([2]; 10 mg/kg BID, after 7 days of treatment): 200% | tumor growth compared with vehicle treated group ([2]; Compound 1 0.6 mg/kg BID or lorlatinib 5 mg/kg BID, day 14, p>0.05): not significantly different | Tumor growth inhibition (TGI) ([3]; all three dose levels of 2, 5, and 10 mg/kg BID, after 7 days of treatment): 200% | tumor response at the end of study ([3]; all three groups (2, 5, 10 mg/kg BID), day 14 post inoculation): complete regression
SMILES: CC1(C)COc2ccc(F)cc2CN2c3nc4c(cnn4cc3OC[C@H]2C(F)F)C(=O)N1 [Compound 1, (4S)-4-(Difluoromethyl)-8-fluoro-13,13-dimethyl-3,4,13,14-tetrahydro-6H-18,1-(metheno)[1,4]oxazino[3,4-i]pyrazolo[4,3-f][1,4,8,10]benzoxatriazacyclotridecin-15(12H)-one]
body weight ([1]; 2, 5, 10 mg/kg BID): no body weight loss | body weight [2, 4]: no body weight loss | body weight [3, 4]: no body weight loss
